The source of these data is paper PMC12396409, “Screening and hit evaluation of a microbial metabolite library against the pathogenic Plasmodium falciparum and Toxoplasma gondii parasites” (International Journal for Parasitology: Drugs and Drug …, 2025).

Experiment [1] relates to P. falciparum 3D7 parasites. In words: P. falciparum growth inhibition assay, 1-cycle (72 h treatment), SYBR DNA staining (library screen at 2 μg/mL and dose-response). The format is cell-based, Plasmodium falciparum. As to conditions: library screen at 2 μg/mL, 72 h, % growth; for activity at 2 µg/mL: Plasmodium falciparum, 3D7.
The subject of experiment [2] is P. falciparum 3D7 parasites. Briefly: P. falciparum growth inhibition assay, 2-cycle (120 h treatment), delayed-death screen and dose-response. As to conditions: library screen at 2 μg/mL, 120 h, % growth; for activity at 2 µg/mL: Plasmodium falciparum, 3D7. Format: cell-based, Plasmodium falciparum.
For experiment [3], the system named is T. gondii RH strain (RH-Tub-eYFP) tachyzoites. In words: microbe, parasite or virus in culture. The format is cell-based, Toxoplasma gondii.
[4] abbreviates: replicate 1, read-out: Pf_72h_%Growth_Rep1.
[5] abbreviates: replicate 2, read-out: Pf_72h_%Growth_Rep2.
Setting [6] is: replicate 1, read-out: Pf_120h_%Growth_Rep1.
The mark [7] stands for this setting: replicate 2, read-out: Pf_120h_%Growth_Rep2.
Where [8] appears, read: Toxoplasma gondii, 72 h, library screen at 2 μg/mL, 72 h, % growth, replicate 1; read-out: Tg_72h_%Growth_Rep1.
Setting [9] is: Toxoplasma gondii, 72 h, library screen at 2 μg/mL, 72 h, % growth, replicate 2; read-out: Tg_72h_%Growth_Rep2.
The mark [10] stands for this setting: library screen at 2 μg/mL, 72 h, % growth, replicate 1.
[11] abbreviates: library screen at 2 μg/mL, 72 h, % growth, replicate 2.
The mark [12] stands for this setting: Toxoplasma gondii; library screen at 2 μg/mL, 72 h, % growth, replicate 1; read-out: Tg_72h_%Growth_Rep1.
[13] abbreviates: Toxoplasma gondii; library screen at 2 μg/mL, 72 h, % growth, replicate 2; read-out: Tg_72h_%Growth_Rep2.

The structures appear in SMILES notation. Where two headings read alike, the source gives them in different places.

For `C=C1CC[C@H]2C(C)(C)CCC[C@]2(C)[C@H]1C[C@@]12C[C@H]3C(=O)N4CCC[C@H]4C(=O)N3[C@@H]1Nc1ccccc12` [Drimentine C], the activity at 2 µg/mL in experiment [1] (setting [4]) was found to be 85.2%; in experiment [1] (setting [5]), 87.9%; in experiment [2] (setting [6]) it was 78.4%; in experiment [2] (setting [7]), 103%. In addition, the values for the percent parasite growth at 2 µg/mL in experiment [3] (setting [8]) and in experiment [3] (setting [9]) were 91.6% and 73.3%, respectively.
Regarding `COC12c3c(C)cc(O)c4c(=O)occ(c34)C(=O)C1C13COC(=O)c4c(O)cc(C)c(c41)C(=O)C2C3OC(C)=O` (stereo not drawn) [Duclauxin], the Pf_72h_%Growth_Rep1 in experiment [1] (replicate 1) was 87.43%. In addition, in experiment [1] (replicate 2), the Pf_72h_%Growth_Rep2 amounted to 79.39%. In experiment [2] (replicate 1), this molecule showed a Pf_120h_%Growth_Rep1 of 87.90%. Besides, in experiment [2] (replicate 2), the Pf_120h_%Growth_Rep2 is on record as 120.62%. In experiment [3] (setting [10]), this molecule returned a Tg_72h_%Growth_Rep1 of 149.61%. Besides, the Tg_72h_%Growth_Rep2 in experiment [3] (setting [11]) was 92.65%.
In the case of `C=CC(C)(C)c1[nH]c2c(CC=C(C)C)cc(CC=C(C)C)cc2c1C[C@@H]1NC(=O)[C@H](C)NC1=O` [Echinulin], the activity at 2 µg/mL in experiment [1] (setting [4]) was 25.2%; in experiment [1] (setting [5]) it was 35.1%; in experiment [2] (setting [6]), 22.8%; in experiment [2] (setting [7]), 39.3%. Moreover, the figures for the percent parasite growth at 2 µg/mL in experiment [3] (setting [12]) and in experiment [3] (setting [13]) were 133% and 104%, respectively.
Take `CCCCCC(=O)C(CCCC)c1oc(=O)c(CCCC)c(O)c1CCCC` (stereo not drawn) [Elasnin]: the Pf_72h_%Growth_Rep1 in experiment [1] (replicate 1) came out at 87.43%. This molecule also gave a Pf_72h_%Growth_Rep2 in experiment [1] (replicate 2) of 85.83%. Besides, the Pf_120h_%Growth_Rep1 in experiment [2] (replicate 1) is 85.68%. In experiment [2] (replicate 2), this molecule registered a Pf_120h_%Growth_Rep2 of 81.51%. The molecule also came in with a Tg_72h_%Growth_Rep1 in experiment [3] (setting [10]) of 103.90%. This molecule also had a Tg_72h_%Growth_Rep2 in experiment [3] (setting [11]) of 75.71%.
In experiment [1] (replicate 1), `CC[C@H](C)[C@H]1O[C@]2(C=C[C@@H]1C)C[C@@H]1C[C@@H](C/C=C(\C)[C@@H](O[C@H]3C[C@H](OC)[C@@H](O[C@H]4C[C@H](OC)[C@H](NC)[C@H](C)O4)[C@H](C)O3)[C@@H](C)/C=C/C=C3\CO[C@@H]4[C@H](O)C(C)=C[C@@H](C(=O)O1)[C@]34O)O2` [Emamectin B1a] came in with a Pf_72h_%Growth_Rep1 of 2.12%. Also, the Pf_72h_%Growth_Rep2 in experiment [1] (replicate 2) is given as 0.39%. This molecule returned a Pf_120h_%Growth_Rep1 in experiment [2] (replicate 1) of 3.81%. Further, the Pf_120h_%Growth_Rep2 in experiment [2] (replicate 2) was 6.54%. The Tg_72h_%Growth_Rep1 in experiment [3] (setting [10]) worked out at 22.56%. The same molecule had a Tg_72h_%Growth_Rep2 in experiment [3] (setting [11]) of 92.26%.
`COc1ccc2cc1Oc1cc(ccc1O)[C@H](O)[C@]13SS[C@@]4(C(=O)N1C)[C@H](O)C1=COC=C[C@H](OC2=O)[C@H]1N4C3=O` [Emestrin] gave a Pf_72h_%Growth_Rep1 in experiment [1] (replicate 1) of 36.85%. In experiment [1] (replicate 2), the Pf_72h_%Growth_Rep2 was 26.37%. The molecule further gave a Pf_120h_%Growth_Rep1 in experiment [2] (replicate 1) of 35.44%. This molecule came in with a Pf_120h_%Growth_Rep2 in experiment [2] (replicate 2) of 47.36%. Also, the Tg_72h_%Growth_Rep1 in experiment [3] (setting [10]) turned out to be 2.77%. For the same molecule, in experiment [3] (setting [11]), the Tg_72h_%Growth_Rep2 is listed as 0.86%.
Take `Cc1cc(O)c2c(c1)C(=O)c1cc(O)cc(O)c1C2=O` [Emodin]: the activity at 2 µg/mL in experiment [1] (setting [4]) came out at 87.3%; in experiment [1] (setting [5]), 86.6%; in experiment [2] (setting [6]) it was 85.9%; in experiment [2] (setting [7]), 114%. Besides, the percent parasite growth at 2 µg/mL came out at 116% in experiment [3] (setting [8]) and 87.4% in experiment [3] (setting [9]).
For `CC[C@H](C)[C@H]1C(=O)O[C@H](C(C)C)C(=O)N(C)[C@@H](C(C)C)C(=O)O[C@H](C(C)C)C(=O)N(C)[C@@H](C(C)C)C(=O)O[C@H](C(C)C)C(=O)N1C` [Enniatin B1], the activity at 2 µg/mL amounted to 4.56% in experiment [1] (setting [4]), 3.05% in experiment [1] (setting [5]), 5.98% in experiment [2] (setting [6]) and 9.66% in experiment [2] (setting [7]). Also, the percent parasite growth at 2 µg/mL is 0.26% in experiment [3] (setting [12]) and 25.7% in experiment [3] (setting [13]).
With `CC(C)[C@H]1C(=O)O[C@H](C(C)C)C(=O)N(C)[C@@H](C(C)C)C(=O)O[C@H](C(C)C)C(=O)N(C)[C@@H](C(C)C)C(=O)O[C@H](C(C)C)C(=O)N1C` [Enniatin B], the activity at 2 µg/mL in experiment [1] (setting [4]) is 4.68%; in experiment [1] (setting [5]) it was 1.65%; in experiment [2] (setting [6]), 2.26%; in experiment [2] (setting [7]), 4.15%. Further, the percent parasite growth at 2 µg/mL in experiment [3] (setting [12]) is 3.2%; in experiment [3] (setting [13]), 30.3%.
In experiment [1] (replicate 1), `COc1cc([C@H]2[C@@]3(O)[C@H](O)[C@H]4C[C@]2(O)[C@](O)(C(=O)O4)[C@H]3C(=O)c2ccccc2)oc(=O)c1` [Enterocin] showed a Pf_72h_%Growth_Rep1 of 81.25%. For the same molecule, the Pf_72h_%Growth_Rep2 in experiment [1] (replicate 2) stood at 72.68%. In addition, the Pf_120h_%Growth_Rep1 in experiment [2] (replicate 1) came to 80.40%. In experiment [2] (replicate 2), the Pf_120h_%Growth_Rep2 was 114.14%. Besides, in experiment [3] (setting [10]), the Tg_72h_%Growth_Rep1 was determined as 101.62%. The molecule further showed a Tg_72h_%Growth_Rep2 in experiment [3] (setting [11]) of 91.26%.
`Cc1c2c(c(O)c3c(O)cccc13)C(=O)[C@]1(O)C(O)=C(C(N)=O)C(=O)[C@H](N(C)C)[C@@H]1C2.Cl` [Epianhydrotetracycline hydrochloride] showed a Pf_72h_%Growth_Rep1 in experiment [1] (replicate 1) of 83.48%. The Pf_72h_%Growth_Rep2 in experiment [1] (replicate 2) is on record as 108.73%. In experiment [2] (replicate 1), the Pf_120h_%Growth_Rep1 was found to be 77.42%. Besides, the Pf_120h_%Growth_Rep2 in experiment [2] (replicate 2) worked out at 113.33%. The molecule further showed a Tg_72h_%Growth_Rep1 in experiment [3] (setting [10]) of 166.02%. The Tg_72h_%Growth_Rep2 in experiment [3] (setting [11]) worked out at 109.09%.
As to `CN(C)[C@H]1C(O)=C(C(N)=O)C(=O)[C@@]2(O)C(O)=C3C(=O)c4c(O)ccc(Cl)c4[C@@](C)(O)[C@H]3C[C@@H]12.Cl` [Epichlortetracycline hydrochloride], the Pf_72h_%Growth_Rep1 in experiment [1] (replicate 1) came to 82.03%. For the same molecule, the Pf_72h_%Growth_Rep2 in experiment [1] (replicate 2) came to 85.38%. This molecule registered a Pf_120h_%Growth_Rep1 in experiment [2] (replicate 1) of 77.41%. In experiment [2] (replicate 2), the Pf_120h_%Growth_Rep2 is recorded as 79.95%. This molecule displayed a Tg_72h_%Growth_Rep1 in experiment [3] (setting [10]) of 92.54%. In experiment [3] (setting [11]), this molecule displayed a Tg_72h_%Growth_Rep2 of 103.55%.
Turning to `CC(CCCCCCCCCCCCCCOC1OC(CO)C(O)C(O)C1O)C(O)=C1C(=O)C(C)N(C)C1=O` (stereo not drawn) [Epicoccamide], in experiment [1] (replicate 1), the Pf_72h_%Growth_Rep1 stood at 87.59%. The same molecule came in with a Pf_72h_%Growth_Rep2 in experiment [1] (replicate 2) of 88.25%. This molecule yielded a Pf_120h_%Growth_Rep1 in experiment [2] (replicate 1) of 94.92%. This molecule came in with a Pf_120h_%Growth_Rep2 in experiment [2] (replicate 2) of 97.01%. The molecule also had a Tg_72h_%Growth_Rep1 in experiment [3] (setting [10]) of 135.91%. The Tg_72h_%Growth_Rep2 in experiment [3] (setting [11]) is 106.99%.
Consider `C/C=C/[C@@H]1C=C[C@@H]2C[C@H](C)CC[C@H]2[C@]1(C)/C(O)=C1/C(=O)[C@@H](CO)N(C)C1=O` [Epiequisetin], for which the Pf_72h_%Growth_Rep1 in experiment [1] (replicate 1) was 86.43%. This molecule also showed a Pf_72h_%Growth_Rep2 in experiment [1] (replicate 2) of 84.23%. The same molecule gave a Pf_120h_%Growth_Rep1 in experiment [2] (replicate 1) of 86.15%. Also, the Pf_120h_%Growth_Rep2 in experiment [2] (replicate 2) stood at 82.07%. In experiment [3] (setting [10]), this molecule showed a Tg_72h_%Growth_Rep1 of 129.84%. The same molecule gave a Tg_72h_%Growth_Rep2 in experiment [3] (setting [11]) of 98.00%.
As for `CN(C)[C@H]1C(O)=C(C(N)=O)C(=O)[C@@]2(O)C(O)=C3C(=O)c4c(O)cccc4[C@@](C)(O)[C@H]3[C@H](O)[C@@H]12` [Epioxytetracycline], the Pf_72h_%Growth_Rep1 in experiment [1] (replicate 1) is on record as 86.72%. In experiment [1] (replicate 2), this molecule showed a Pf_72h_%Growth_Rep2 of 78.69%. Further, the Pf_120h_%Growth_Rep1 in experiment [2] (replicate 1) worked out at 99.19%. The Pf_120h_%Growth_Rep2 in experiment [2] (replicate 2) amounted to 96.08%. The Tg_72h_%Growth_Rep1 in experiment [3] (setting [10]) came to 152.95%. Besides, the Tg_72h_%Growth_Rep2 in experiment [3] (setting [11]) came out at 107.04%.
